Literature values in patent US10993890B2, “Antifungal solution and foot wipe” (PELLI SKIN CO., LLC, priority 2018, dated 2021).

Tests used:
[1] = octanol/water partition coefficient of the solvent
[2] = test system: skin cells; conditions: 3% ethanol applied to skin cells over the course of two days

Row | Molecule | LogKow [1] | increase of cell death [2]
1 | 1,3-dioxolan | −0.37 | –
2 | C1CCOCOC1 [1,3-Dioxepane] | 0.7709 | –
3 | CCO [ethanol] | – | 26%

Continued, in another order:

Row | LogKow [1] | Molecule | increase of cell death [2]
4 | 0.3792 | CC1COCO1 (centres unmarked) [4-Methyl-1,3-dioxolane] | –
5 | −1.082 | OC1COCOC1 [5-Hydroxy-1,3-dioxane] | –
